Measurements as given in publication PMC11582173, “Synthesis, cytotoxicity, anti-inflammatory, anti-metastatic and anti-oxidant activities of novel chalcones incorporating 2-phenoxy-N-arylacetamide and thiophene moieties: induction of apoptosis in MCF7 and HEP2 cells” (Naunyn-Schmiedeberg's Archives of Pharmacology, 2024).
Where “and” joins values, the source holds several entries; their conditions need not be identical. Identical values can stand only once.

How the values were obtained:
[1] = system: Glutathione (GSH); assay: ELISA, GSH concentration; assay type: cell-based, human
Procedure: (§1) The concentrations of matrix metalloproteinase-2 (MMP2), matrix metalloproteinase-9 (MMP9), Bcl2, BAX, P53, Malondialdehyde (MDA), Glutathione (GSH), caspase 8, caspase 9 and IL-6 were measured quantitatively in 5c treated MCF7 and HEP2 cells using ELISA (Enzyme-Linked Immunosorbent Assay) (Table 4). Gelatinases are a collective word for MMP-2 and MMP-9, where MMP-2 is gelatinase-A and MMP-9 is gelatinase-B. Solid tumor invasion, metastasis, and angiogenesis have long been linked to gelatinases (Das et al. [2021]). […] Bcl2 is a crucial protein that targets apoptosis inhibition. It is regarded as a predictive biomarker or therapeutic target in the diagnosis of cancer due to its broad expression in a variety of cancers (Porter et al. [2009]). […] The pro-apoptotic protein BAX permeabilizes the mitochondrial outer membrane by changing from a cytosolic monomer to a hazardous oligomer triggering the apoptosis process (Fulda and Debatin [2006]). […] P53 transcription factor performs an essential tumor suppressor role by coordinating a wide range of physiological responses, including DNA repair, cell cycle arrest, cellular senescence, cell death, cell differentiation, and metabolism (Liebl and Hofmann [2021]). It was activated in MCF7 and HEP2-treated cells with values (4.28 and 3.109 ng/mL), respectively, compared to their controls (3.44 and 2.06 ng/mL). […]

[2] = system: human colorectal carcinoma (HCT116) cells; assay: SRB cytotoxic assay, HCT116; assay type: cell-based; details: HCT-116, single dose 100 µg/mL, 48 h, read-out: %Inhibition at100 µg/mL HCT116
Procedure: (§2) All the prepared compounds were screened at a concentration of 100 µg/mL against six different human cell lines: human laryngeal carcinoma (HEP2), human colorectal carcinoma (HCT116), human breast carcinoma (MCF7), human Lung carcinoma (A549), human liver carcinoma (HEPG2), and normal African Green monkey kidney cell line (VERO). Doxorubicin was used as a positive control for comparison purposes.
(§3) The human laryngeal carcinoma (HEP2), colorectal carcinoma (HCT116), breast carcinoma (MCF7), Lung carcinoma (A549), liver carcinoma (HEPG2), and normal African Green monkey kidney cell line (VERO) were purchased from American Tissue Culture Collection (Rockville, MD, USA). The cells were treated for 48 h with a single dose (100 µg/mL) of all the tested chalcones. […] In brief, the cells were seeded in a 96-well microtiter plate at a concentration of 5×10^3 cells/well in 100 µL fresh RPMI-1640 medium and left to attach to the plates for 24 h. Then, cells were incubated with 100 μL of different concentrations (50, 25, 12.5, 6.25, and 0.0 µg/mL) of 5c in triplicate at 37 °C for 48 h. After that, the cells were fixed with 10 µL cold 100% Trichloroacetic acid (TCA) for 1h at 4 °C. The wells were then washed 1 time with distilled water using (automatic Tecan washer, Germany) and stained for 30 min at room temperature with 50 µL 0.4% SRB dissolved in 1% acetic acid. The plates were air-dried and the dye was solubilized with 100 µl/well of 1M tris base (pH 10.5) for 5 min. The optical density (O.D.) of each well was measured spectrophotometrically at 570 nm with an ELISA microplate reader (Sunrise Tecan reader, Germany) with automatic shaking for 30 seconds before reading. The mean background absorbance was subtracted automatically and mean values for each drug concentration were calculated. The percentage of cell survival was calculated as follows: Survival fraction= O.D. (treated cells)/ O.D. (control cells) (Bhat et al. [2023]).

[3] = system: Bcl2; assay: ELISA, Bcl2 concentration; assay type: cell-based, human
Procedure: as §1

[4] = system: human liver carcinoma (HEPG2) cells; assay: SRB cytotoxic assay, HEPG2; assay type: cell-based; details: single dose 100 µg/mL, 48 h, read-out: %Inhibition at100 µg/mL HEPG2
Procedure: as §2, §3

[5] = system: IL-6; assay: ELISA, IL-6 concentration; assay type: cell-based, human
Procedure: as §1

[6] = system: P53; assay: ELISA, P53 concentration; assay type: cell-based, human
Procedure: as §1

## COc1ccc(NC(=O)COc2ccc(C=CC(=O)c3cccs3)cc2)cc1 [Compound 5c, N-(4-Methoxyphenyl)-2-(4-(3-oxo-3-(thiophen-2-yl)prop-1-en-1-yl)phenoxy)acetamide]
[1]; 5c treated HEP2 cells, untreated 0.668±0.010
  GSH concentration: 0.821 ng/mL and 0.821 ± 0.009 ng/mL
[1]; 5c treated MCF7 cells, untreated 0.737±0.009
  GSH concentration: 0.939 ng/mL and 0.939 ± 0.022 ng/mL
[2]
  inhibition at 100 µg/mL: 41.9 ± 1.8%
[3]; 5c treated HEP2 cells, untreated 2299.4±170.35
  Bcl2 concentration: 1809.34 pg/mL and 1809.34 ± 27.45 pg/mL
[3]; 5c treated MCF7 cells, untreated 2479.8±17.08
  Bcl2 concentration: 2089.96 pg/mL and 2089.96 ± 17.97 pg/mL
[4]
  inhibition at 100 µg/mL: 67 ± 1.6%
[5]; 5c treated HEP2 cells, untreated 85.24±1.16
  IL-6 concentration: 54.27 pg/mL and 54.27 ± 5.509 pg/mL
[5]; 5c treated MCF7 cells, untreated 100.47±0.439
  IL-6 concentration: 74.68 pg/mL and 74.68 ± 0.979 pg/mL
[6]; 5c treated HEP2 cells, untreated 2.06±0.425
  P53 concentration: 3.109 ng/mL and 3.109 ± 0.089 ng/mL
[6]; 5c treated MCF7 cells, untreated 3.44±0.25
  P53 concentration: 4.28 ng/mL and 4.28 ± 0.188 ng/mL
